One data set has as its system Proteus mirabilis 18. Put plainly: Minimal inhibitory concentrations, two-fold agar-plate dilution method. The conditions noted are these: HI-agar, 37° C., 20 hours. The data set is classed as cell-based. As to the method:
(§1) (A) Minimal inhibitory concentrations In vitro antibacterial activity was determined by the two-fold agar-plate dilution method as described below. One loopful of an overnight culture of each test strain in Trypticase-soy broth (10^8 viable cells per ml) was streaked on heart infusion agar (HI-agar) containing graded concentrations of representative test compound, and the minimal inhibitory concentration (MIC) was expressed in terms of μg/ml after incubation at 37° C. for 20 hours.

The test system of the next data set is Proteus vulgaris 2. The data set is described as above. The data set is classed as cell-based. The conditions noted are these: HI-agar, 37° C., 20 hours. The protocol: as §1
Data set [1] can be described thus: Urinary excretion after oral administration in rats. Format: in vivo. The conditions noted are these: rat, urine, 100 mg/kg, 0 to 24 hours, bioassay, read-out: Urinary recovery in 24 hours (%).
Protocol: Urine of rats was collected with a urine collector at 0 to 6, and 6 to 24 hours after oral administration of 100 mg/kg of the test antibiotic. The antibiotic levels in the urine samples were bioassayed with the standard solution prepared with M/15 phosphate buffer (pH 7.0) and the urinary recovery in 24 hours was calculated.
The next data set can be described thus: in vivo. The conditions noted are these: rat, po, 100 mg/kg.

In brackets after ≈: the same amount, converted by molar mass.

Protocol for in vivo: Rats anesthetized with pentobarbital were fixed in supine position, and a polyethylene cannula was inserted into the bile duct. Bile samples were collected at 0 to 3, 3 to 6, and 6 to 24 hours after oral administration of 100 mg/kg of the test antibiotic. The antibiotic levels in the bile samples were bioassayed with the standard solution prepared with M/15 phosphate buffer (pH 7.0) and the biliary recovery in 24 hours were calculated.

As a reminder, the MIC is the lowest concentration that inhibits growth of the organism. As for `O=C(O)CO/N=C(\C(=O)NC1C(=O)N2C(C(=O)O)=C(CSc3ccc4nnnn4n3)CSC12)c1ncsn1` (stereo not drawn) [Compound .circle.A, 7-[2-Carboxymethoxyimino-2-(1,2,4-thiadiazol-3-yl)acetamido]-3-(tetrazolo[1,5-b]pyridazin-6-yl)thiomethyl-3-cephem-4-carboxylic acid (syn isomer)], the MIC against Proteus mirabilis 18 and against Proteus vulgaris 2 was 0.05 mg/L (≈ 0.0864 µM) each time. The values for the dose excreted at 24 h (in data set [1]; in the data set “in vivo”) were 10.6% and 12.6%, respectively.

Source of the values: patent publication US4463003A, “Cephem compounds” (Fujisawa Pharmaceutical Co., Ltd., priority 1982, dated 1984).
